Series [1] has as its target T1, ATP-dependent translocase ABCB1 (Mus musculus, UniProt P21447). Kind of series: TP_TRANSPORTER: increase in Calcein-AM intracellular accumulation in mdr1a-expressing LLC-PK1 cells. The series is classed as functional, cell-based.
Series [2] has as its target ATP-dependent translocase ABCB1 (Mus musculus, UniProt P06795). Kind of series: TP_TRANSPORTER: increase in Calcein-AM intracellular accumulation in mdr1b-expressing LLC-PK1 cells. Format: functional, cell-based.
Series [3] concerns the target ATP-dependent translocase ABCB1 (Homo sapiens, UniProt P08183). Kind of series: TP_TRANSPORTER: transepithelial transport (basal to apical) in MDR1-expressing LLC-PK1 cells. The series is classed as functional, cell-based. Conditions: pig.
The target in series [4] is T1, ATP-dependent translocase ABCB1. As to the kind of experiment: TP_TRANSPORTER: transepithelial transport (basal to apical) in mdr1a-expressing LLC-PK1 cell. The series is classed as functional, cell-based. Particulars: pig.
Series [5] shares this target. Kind of series: TP_TRANSPORTER: no influence on tissue distribution in mdr1a(-/-) mouse. The series is classed as functional, organism-based. Particulars: in vivo.
For series [6] the target is unchanged. As to the kind of experiment: TP_TRANSPORTER: increase in heart concentration in mdr1a(-/-) mouse. Format: functional, organism-based. Conditions: in vivo.
For series [7] the target is unchanged. As to the kind of experiment: TP_TRANSPORTER: increase in liver concentration in mdr1a(-/-) mouse. The series is classed as functional, organism-based. Conditions: in vivo.
Series [8] has the same target. As to the kind of experiment: TP_TRANSPORTER: increase in kidney concentration in mdr1a(-/-) mouse. Format: functional, organism-based. Particulars: in vivo.
For series [9] the target is unchanged. Kind of series: TP_TRANSPORTER: increase in lung concentration in mdr1a(-/-) mouse. Format: functional, organism-based. Conditions: in vivo.
The target is the same in series [10]. As to the kind of experiment: TP_TRANSPORTER: increase in spleen concentration in mdr1a(-/-) mouse. The series is classed as functional, organism-based. Conditions: in vivo.

This is an account of results in ChEMBL document CHEMBL2074434, “Interaction of cytochrome P450 3A inhibitors with P-glycoprotein” (J Pharmacol Exp Ther, 2002).

What is called Ki is the equilibrium dissociation constant of an inhibitor or competing ligand from its target.

T1 sequence (P21447 whole entry): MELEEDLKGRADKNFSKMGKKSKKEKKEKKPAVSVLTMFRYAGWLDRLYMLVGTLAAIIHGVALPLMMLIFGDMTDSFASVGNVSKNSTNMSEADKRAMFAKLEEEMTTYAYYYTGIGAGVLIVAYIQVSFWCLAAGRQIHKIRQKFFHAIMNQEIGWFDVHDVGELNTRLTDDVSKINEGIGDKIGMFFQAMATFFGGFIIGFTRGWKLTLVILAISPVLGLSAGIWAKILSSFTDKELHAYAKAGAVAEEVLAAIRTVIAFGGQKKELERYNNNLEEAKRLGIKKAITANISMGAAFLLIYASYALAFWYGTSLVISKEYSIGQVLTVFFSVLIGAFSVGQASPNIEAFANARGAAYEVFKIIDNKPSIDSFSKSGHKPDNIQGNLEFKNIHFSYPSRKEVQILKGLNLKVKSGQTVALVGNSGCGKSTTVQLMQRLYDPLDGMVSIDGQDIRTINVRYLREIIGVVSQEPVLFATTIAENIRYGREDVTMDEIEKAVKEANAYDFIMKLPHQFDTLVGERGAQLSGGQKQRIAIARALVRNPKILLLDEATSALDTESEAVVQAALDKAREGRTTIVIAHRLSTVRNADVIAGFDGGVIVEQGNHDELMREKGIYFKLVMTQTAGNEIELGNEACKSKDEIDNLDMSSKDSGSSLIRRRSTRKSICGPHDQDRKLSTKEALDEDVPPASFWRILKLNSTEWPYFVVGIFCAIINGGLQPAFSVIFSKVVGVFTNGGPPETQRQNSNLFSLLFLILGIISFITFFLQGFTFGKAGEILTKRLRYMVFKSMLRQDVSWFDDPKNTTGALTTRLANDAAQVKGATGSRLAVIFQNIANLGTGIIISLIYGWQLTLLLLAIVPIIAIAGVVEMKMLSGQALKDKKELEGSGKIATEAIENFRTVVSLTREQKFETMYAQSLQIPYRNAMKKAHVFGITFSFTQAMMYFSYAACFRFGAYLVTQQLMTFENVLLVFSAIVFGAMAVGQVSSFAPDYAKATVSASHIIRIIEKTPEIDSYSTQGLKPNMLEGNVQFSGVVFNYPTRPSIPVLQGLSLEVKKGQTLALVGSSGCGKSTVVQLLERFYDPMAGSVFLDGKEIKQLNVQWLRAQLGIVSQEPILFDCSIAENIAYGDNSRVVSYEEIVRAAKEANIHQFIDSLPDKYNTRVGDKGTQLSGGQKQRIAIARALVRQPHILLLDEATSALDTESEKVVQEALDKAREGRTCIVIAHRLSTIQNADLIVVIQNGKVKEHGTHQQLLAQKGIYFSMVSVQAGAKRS
Chain of ATP-dependent translocase ABCB1 (Mus musculus, UniProt P06795) (P06795 whole entry): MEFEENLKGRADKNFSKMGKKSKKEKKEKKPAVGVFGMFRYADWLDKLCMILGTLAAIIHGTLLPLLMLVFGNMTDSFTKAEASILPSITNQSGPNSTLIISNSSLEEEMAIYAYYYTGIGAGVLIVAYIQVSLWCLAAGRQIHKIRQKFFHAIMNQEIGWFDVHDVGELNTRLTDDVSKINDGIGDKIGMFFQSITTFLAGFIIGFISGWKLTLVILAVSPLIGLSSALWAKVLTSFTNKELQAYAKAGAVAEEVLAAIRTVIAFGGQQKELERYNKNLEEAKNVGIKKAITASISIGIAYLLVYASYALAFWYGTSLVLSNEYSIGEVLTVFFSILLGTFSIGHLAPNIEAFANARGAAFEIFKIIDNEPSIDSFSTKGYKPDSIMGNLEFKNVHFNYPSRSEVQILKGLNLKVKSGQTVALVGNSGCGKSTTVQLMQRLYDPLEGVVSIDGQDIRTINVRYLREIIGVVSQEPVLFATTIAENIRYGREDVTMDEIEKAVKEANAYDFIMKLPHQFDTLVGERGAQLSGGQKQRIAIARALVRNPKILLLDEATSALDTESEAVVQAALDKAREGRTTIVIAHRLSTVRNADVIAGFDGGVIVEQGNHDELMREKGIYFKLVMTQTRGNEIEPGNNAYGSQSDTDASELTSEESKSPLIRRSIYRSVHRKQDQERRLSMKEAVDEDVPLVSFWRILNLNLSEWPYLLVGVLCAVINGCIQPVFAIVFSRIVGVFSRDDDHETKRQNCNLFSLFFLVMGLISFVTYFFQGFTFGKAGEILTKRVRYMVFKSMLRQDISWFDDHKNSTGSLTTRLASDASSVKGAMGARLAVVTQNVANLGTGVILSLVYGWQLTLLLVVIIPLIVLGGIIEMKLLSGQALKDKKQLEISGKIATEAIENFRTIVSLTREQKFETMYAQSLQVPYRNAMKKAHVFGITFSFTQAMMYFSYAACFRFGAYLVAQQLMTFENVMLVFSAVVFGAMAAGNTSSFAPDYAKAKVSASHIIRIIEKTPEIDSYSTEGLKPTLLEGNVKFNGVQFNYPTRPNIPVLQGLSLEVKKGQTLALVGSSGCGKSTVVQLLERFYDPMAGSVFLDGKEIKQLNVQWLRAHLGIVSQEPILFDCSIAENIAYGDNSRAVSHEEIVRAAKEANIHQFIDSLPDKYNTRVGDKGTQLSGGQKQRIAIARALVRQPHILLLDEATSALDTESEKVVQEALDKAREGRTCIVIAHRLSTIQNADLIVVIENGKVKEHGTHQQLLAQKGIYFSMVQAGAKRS
Chain of ATP-dependent translocase ABCB1 (Homo sapiens, UniProt P08183) (P08183 whole entry): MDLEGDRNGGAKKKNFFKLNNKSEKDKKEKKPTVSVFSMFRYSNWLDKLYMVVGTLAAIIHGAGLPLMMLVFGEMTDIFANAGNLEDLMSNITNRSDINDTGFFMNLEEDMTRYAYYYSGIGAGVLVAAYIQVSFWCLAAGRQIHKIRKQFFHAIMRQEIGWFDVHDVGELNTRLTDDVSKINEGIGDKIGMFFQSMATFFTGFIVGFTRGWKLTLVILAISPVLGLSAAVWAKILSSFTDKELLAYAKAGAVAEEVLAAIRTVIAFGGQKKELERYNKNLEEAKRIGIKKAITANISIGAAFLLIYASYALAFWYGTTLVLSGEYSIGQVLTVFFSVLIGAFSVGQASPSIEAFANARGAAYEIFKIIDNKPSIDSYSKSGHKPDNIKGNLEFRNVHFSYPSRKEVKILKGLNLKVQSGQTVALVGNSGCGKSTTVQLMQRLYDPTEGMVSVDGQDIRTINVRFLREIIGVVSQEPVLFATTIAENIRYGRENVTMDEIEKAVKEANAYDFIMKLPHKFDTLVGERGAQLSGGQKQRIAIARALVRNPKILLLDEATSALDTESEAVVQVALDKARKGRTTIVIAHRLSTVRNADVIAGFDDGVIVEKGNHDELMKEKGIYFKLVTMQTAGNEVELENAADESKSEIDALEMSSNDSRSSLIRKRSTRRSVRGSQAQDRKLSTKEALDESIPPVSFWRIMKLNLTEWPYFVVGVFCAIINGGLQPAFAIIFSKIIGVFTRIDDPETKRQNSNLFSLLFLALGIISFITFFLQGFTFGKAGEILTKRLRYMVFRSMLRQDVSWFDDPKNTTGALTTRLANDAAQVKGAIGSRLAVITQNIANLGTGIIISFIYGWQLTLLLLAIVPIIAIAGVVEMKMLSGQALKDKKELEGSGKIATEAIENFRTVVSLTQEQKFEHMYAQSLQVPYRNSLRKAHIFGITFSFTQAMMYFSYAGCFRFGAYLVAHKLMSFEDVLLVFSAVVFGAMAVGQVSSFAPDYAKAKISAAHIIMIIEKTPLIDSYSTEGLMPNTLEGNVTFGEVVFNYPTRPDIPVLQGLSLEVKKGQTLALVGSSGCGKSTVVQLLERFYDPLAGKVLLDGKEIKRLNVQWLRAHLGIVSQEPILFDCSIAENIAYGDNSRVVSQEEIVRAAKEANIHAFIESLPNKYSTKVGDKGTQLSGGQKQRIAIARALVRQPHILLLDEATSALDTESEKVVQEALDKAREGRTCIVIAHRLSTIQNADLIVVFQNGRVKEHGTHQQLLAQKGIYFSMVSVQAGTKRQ

As for `Clc1ccc(COC(Cn2ccnc2)c2ccc(Cl)cc2Cl)c(Cl)c1` (stereo not given) [MICONAZOLE], the Ki in series [1] is 22.2 µM.

Take `C[C@@H](CO)NC(=O)[C@@H]1C=C2c3cccc4[nH]cc(c34)C[C@H]2N(C)C1` [ERGONOVINE]: the figures for the inhibition constant (Ki) in series [1] and in series [2] were 118 µM and over 1000 µM, respectively.

In the case of `Clc1ccccc1C(c1ccccc1)(c1ccccc1)n1ccnc1` [CLOTRIMAZOLE], the values for the inhibitory constant (Ki) in series [1] and in series [2] were 18.3 µM and 25.1 µM, respectively.

As for `CC[C@H]1OC(=O)[C@H](C)[C@@H](O[C@H]2C[C@@](C)(OC)[C@@H](O)[C@H](C)O2)[C@H](C)[C@@H](O[C@@H]2O[C@H](C)C[C@H](N(C)C)[C@H]2O)[C@](C)(O)C[C@@H](C)C(=O)[C@H](C)[C@@H](O)[C@]1(C)O` [ERYTHROMYCIN], the inhibition constant Ki in [1] is over 1000 µM.

As for `CC(C)C[C@H]1C(=O)N2CCC[C@H]2[C@]2(O)O[C@](NC(=O)[C@@H]3C=C4c5cccc6[nH]cc(c56)C[C@H]4N(C)C3)(C(C)C)C(=O)N12` [ERGOCRYPTINE], the Ki is 43.5 µM in [1] and 26.9 µM in series [2].

On to `CC(C)[C@H]1C(=O)N2CCC[C@H]2[C@]2(O)O[C@](NC(=O)[C@@H]3C=C4c5cccc6[nH]cc(c56)C[C@H]4N(C)C3)(C(C)C)C(=O)N12` [ERGOCORNINE], for which the inhibition constant (Ki) in [1] was 272 µM; in [2], 19.1 µM.

On to `CN1C[C@H](C(=O)N[C@]2(C)O[C@@]3(O)[C@@H]4CCCN4C(=O)[C@H](Cc4ccccc4)N3C2=O)C[C@@H]2c3cccc4[nH]cc(c34)C[C@H]21` [DIHYDROERGOTAMINE], for which the inhibition constant Ki in [1] and in series [2] was over 1000 µM throughout.

As for `CC(C)[C@@]1(NC(=O)[C@@H]2C[C@@H]3c4cccc5[nH]cc(c45)C[C@H]3N(C)C2)O[C@@]2(O)[C@@H]3CCCN3C(=O)[C@H](Cc3ccccc3)N2C1=O` [DIHYDROERGOCRISTINE], the Activity entry in [3] is “substrate [+]”. Also, the Ki is 111 µM in series [1] and 167 µM in [2].

For `OC(Cn1cncn1)(Cn1cncn1)c1ccc(F)cc1F` [FLUCONAZOLE], the Activity entry was “substrate [+]” in [4], “is not a substrate [-]” in series [3] and “is not a substrate [-]” in series [5]. Further, the Ki in series [1] and in series [2] was over 1000 µM in each case.

Regarding `CO[C@H]1C[C@H](O[C@H]2[C@H](C)[C@@H](O[C@@H]3O[C@H](C)C[C@H](N(C)C)[C@H]3OC(C)=O)[C@@H](C)C[C@@]3(CO3)C(=O)[C@H](C)[C@@H](OC(C)=O)[C@@H](C)[C@@H](C)OC(=O)[C@@H]2C)O[C@@H](C)[C@@H]1OC(C)=O` [TROLEANDOMYCIN], the Ki in series [1] is 217 µM; in series [2], over 1000 µM.

As for `CN1C[C@H](C(=O)N[C@]2(C)O[C@@]3(O)[C@@H]4CCCN4C(=O)[C@H](Cc4ccccc4)N3C2=O)C=C2c3cccc4[nH]cc(c34)C[C@H]21` [ERGOTAMINE], the Ki was 189 µM in series [1] and 18 µM in [2].

With `CC(C)[C@@]1(NC(=O)[C@@H]2C=C3c4cccc5[nH]cc(c45)C[C@H]3N(C)C2)O[C@@]2(O)[C@@H]3CCCN3C(=O)[C@H](Cc3ccccc3)N2C1=O` [ERGOCRISTINE], the values for the Ki in [1] and in [2] were 39.4 µM and 15.3 µM, respectively.

As to `COC(=O)[C@H]1[C@H]2C[C@@H]3c4[nH]c5cc(OC)ccc5c4CCN3C[C@H]2C[C@@H](OC(=O)c2cc(OC)c(OC)c(OC)c2)[C@@H]1OC` [RESERPINE], the Activity result in [4], in [6], in [7], in [8], in [9] and in [10] was “substrate [+]” each time. Further, the Ki in [1] is 4.03 µM; in series [2], 17.9 µM.

Turning to `CC(C)C[C@H]1C(=O)N2CCC[C@H]2[C@]2(O)O[C@](NC(=O)[C@@H]3C[C@@H]4c5cccc6[nH]cc(c56)C[C@H]4N(C)C3)(C(C)C)C(=O)N12` [DIHYDROERGOCRYPTINE], the Activity result in [4] and in series [8] was “substrate [+]” each time. In addition, the values for the Ki in [1] and in [2] were 333 µM and 160 µM, respectively.

In the case of `CC(C)C[C@H]1C(=O)N2CCC[C@H]2[C@]2(O)O[C@](NC(=O)[C@@H]3C=C4c5cccc6[nH]c(Br)c(c56)C[C@H]4N(C)C3)(C(C)C)C(=O)N12` [BROMOCRIPTINE], the inhibition constant Ki is 7.48 µM in [1] and 6.39 µM in series [2].
